Laboratory results taken from the supplement of paper PMC10307832.

How the values were obtained:
Assay in all cases: relative viability (nuclei count vs DMSO), 5 days (fraction); higher = more cells survive
Bemcentinib + Dasatinib = compound: Nc1nc(Nc2ccc3c(c2)CC[C@@H](N2CCCC2)CC3)nn1-c1cc2c(nn1)-c1ccccc1CCC2 [Bemcentinib] + Cc1nc(Nc2ncc(C(=O)Nc3c(C)cccc3Cl)s2)cc(N2CCN(CCO)CC2)n1 [Dasatinib] (partner 0.075 µM)
Outline: (§1)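 Cells from lung cancer lines were seeded into 1536-well plates and, one day later, dosed by pin tool. Treatments were either a single drug or a fixed dose of an anchor drug with five library-drug doses (not always all listed) in √10 steps. After 5 days, nuclei were stained in a one-step fixation (final 0.05% Triton X-100, 1% formaldehyde, 1 ug/ml Hoechst) and counted on 4× images, and relative viability is the treated-to-vehicle nuclei ratio, as the median of duplicate plates.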

[1] = compound: CC1=CC=C(C=C1)C(=O)CN2C3=C(CCCC3)SC2=N [Pifithrin_alpha] + CC(C)C[C@H](NC(=O)[C@H](Cc1ccccc1)NC(=O)c1cnccn1)B(O)O [Bortezomib] (partner 0.002 µM)
Outline: as §1

Axitinib + Vorinostat = compound: CNC(=O)c1ccccc1Sc1ccc2c(/C=C/c3ccccn3)n[nH]c2c1 [Axitinib] + O=C(CCCCCCC(=O)Nc1ccccc1)NO [Vorinostat] (partner 1 µM)
Outline: as §1

Bemcentinib + Alpelisib = compound: Nc1nc(Nc2ccc3c(c2)CC[C@@H](N2CCCC2)CC3)nn1-c1cc2c(nn1)-c1ccccc1CCC2 [Bemcentinib] + Cc1nc(NC(=O)N2CCC[C@H]2C(N)=O)sc1-c1ccnc(C(C)(C)C(F)(F)F)c1 [Alpelisib] (partner 2 µM)
Outline: as §1

## NCI-H650
Bemcentinib + Dasatinib; first compound 0.04 µM
  relative viability: 0.424
Bemcentinib + Dasatinib; first compound 0.1265 µM
  relative viability: 0.514
Bemcentinib + Dasatinib; first compound 0.4 µM
  relative viability: 0.474
Bemcentinib + Dasatinib; first compound 1.265 µM
  relative viability: 0.43
Bemcentinib + Dasatinib; first compound 4 µM
  relative viability: 0.4
[1]; first compound 3.162 µM
  relative viability: 1
[1]; first compound 10 µM
  relative viability: 0.804
[1]; first compound 31.62 µM
  relative viability: 0.51
[1]; first compound 100 µM
  relative viability: 0.725
Axitinib + Vorinostat; first compound 0.005 µM
  relative viability: 0.371
Axitinib + Vorinostat; first compound 0.01581 µM
  relative viability: 0.452
Axitinib + Vorinostat; first compound 0.05 µM
  relative viability: 0.448
Axitinib + Vorinostat; first compound 0.1581 µM
  relative viability: 0.459
Axitinib + Vorinostat; first compound 0.5 µM
  relative viability: 0.366
Bemcentinib + Alpelisib; first compound 0.04 µM
  relative viability: 1.01
Bemcentinib + Alpelisib; first compound 0.1265 µM
  relative viability: 1.38
Bemcentinib + Alpelisib; first compound 0.4 µM
  relative viability: 1.22
Bemcentinib + Alpelisib; first compound 1.265 µM
  relative viability: 0.974
Bemcentinib + Alpelisib; first compound 4 µM
  relative viability: 1.06
